From article PMC3898987 (Bioorganic & Medicinal Chemistry, 2013)
Changes are numbered by the printed parent chain.

Key:
[1] = target: T1, 5-HT3AB receptor, 5-HT3B subunit W90C (Homo sapiens, UniProt O95264+P46098, W83C); experiment: FlexStation membrane potential dye functional assay, HEK293 cells; details: 5-HT concentration-response, 5-HT3AB with 5-HT3B W90C
T1 sequence (P46098 24-478): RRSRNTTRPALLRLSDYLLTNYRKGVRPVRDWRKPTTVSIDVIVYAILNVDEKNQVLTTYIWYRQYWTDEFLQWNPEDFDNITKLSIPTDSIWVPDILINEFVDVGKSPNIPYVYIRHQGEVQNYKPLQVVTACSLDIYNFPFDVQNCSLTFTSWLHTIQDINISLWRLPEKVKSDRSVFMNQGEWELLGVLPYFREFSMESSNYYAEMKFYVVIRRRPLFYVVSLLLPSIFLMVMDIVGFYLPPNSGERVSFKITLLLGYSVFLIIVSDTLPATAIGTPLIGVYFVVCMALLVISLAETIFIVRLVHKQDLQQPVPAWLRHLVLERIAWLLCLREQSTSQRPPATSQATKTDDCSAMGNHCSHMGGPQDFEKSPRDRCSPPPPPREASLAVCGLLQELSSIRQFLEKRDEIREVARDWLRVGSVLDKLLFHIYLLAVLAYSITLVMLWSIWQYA
T1 sequence (O95264 22-441 W83C): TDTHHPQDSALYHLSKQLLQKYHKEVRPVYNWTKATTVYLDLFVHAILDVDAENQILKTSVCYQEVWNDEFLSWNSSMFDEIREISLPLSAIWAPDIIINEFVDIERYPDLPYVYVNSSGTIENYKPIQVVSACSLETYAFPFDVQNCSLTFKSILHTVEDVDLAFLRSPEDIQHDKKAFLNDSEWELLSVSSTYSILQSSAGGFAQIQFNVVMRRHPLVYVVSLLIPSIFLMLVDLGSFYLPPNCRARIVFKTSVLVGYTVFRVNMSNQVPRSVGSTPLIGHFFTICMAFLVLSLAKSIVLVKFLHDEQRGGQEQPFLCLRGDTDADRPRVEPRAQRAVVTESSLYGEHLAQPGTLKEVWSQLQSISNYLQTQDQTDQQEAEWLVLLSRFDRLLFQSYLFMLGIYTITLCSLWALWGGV
Protocol: (§1) Human embryonic kidney (HEK) 293 cells were cultured on 90 mm tissue culture plates at 37 °C and 7% CO2 in a humidified atmosphere. They were grown in DMEM:F12 (Dulbecco’s Modified Eagle’s Medium/Nutrient Mix F12 (1:1)) with GlutaMAX I™ containing 10% fetal calf serum and passaged when confluent. […] For FlexStation assays, transfected cells were plated on 96-well plates and incubated 1–2 days before assay.
(§2) Fluorometric studies were undertaken using a FlexStation® (Molecular Devices, Sunnyvale, CA, USA) as previously described.[11]
(§3) Fluorescence was measured every 2 s for 200 s. […] Concentration–response and inhibition curves were obtained for each mutant, and the fluorescence values were normalized to the maximal response.

[2] = target: T2, 5-HT3AB receptor, 5-HT3B subunit H73A (Homo sapiens, UniProt O95264+P46098, H66A); experiment: as above; details: 5-HT concentration-response, 5-HT3AB with 5-HT3B H73A
T2 sequence (P46098 24-478): T1 sequence (P46098 24-478)
T2 sequence (O95264 22-441 H66A): T1 sequence (O95264 22-441 W83C) with H45A, C62W
Protocol: as §1, §2, §3

[3] = target: T3, WT 5-HT3AB receptor (Homo sapiens, UniProt O95264+P46098); experiment: radioligand saturation binding, transfected HEK293 membranes; details: [3H]-palonosetron saturation, 4 °C, 24 h
T3 sequence (P46098 24-478): T1 sequence (P46098 24-478)
T3 sequence (O95264 22-441): T1 sequence (O95264 22-441 W83C) with C62W
Protocol: (§4) Human embryonic kidney (HEK) 293 cells were cultured on 90 mm tissue culture plates at 37 °C and 7% CO2 in a humidified atmosphere. They were grown in DMEM:F12 (Dulbecco’s Modified Eagle’s Medium/Nutrient Mix F12 (1:1)) with GlutaMAX I™ containing 10% fetal calf serum and passaged when confluent. For radioligand binding studies, cells in 90 mm dishes were transfected at 60–70% confluency using polyethyleneimine and incubated for 3–4 days before use. For FlexStation assays, transfected cells were plated on 96-well plates and incubated 1–2 days before assay. […]
(§5) Eight-point binding assays were performed to produce saturation binding curves. […] Radioactive counts were measured using a Beckman LS6000SC liquid scintillation counter (Fullerton, California, USA).
(§6) Data were analyzed by iterative curve fitting using GraphPad Prism v5 (San Diego, CA) according to the following equation: B=Bmax[L]^n/kdn+[L]^n where B is the amount of bound radioligand, Bmax is the maximum specific binding at equilibrium, [L] is the concentration of radioligand, Kd is the equilibrium dissociation constant of the radioligand, and n is the Hill coefficient.

[4] = target: T4, 5-HT3A receptor S163T (Homo sapiens, UniProt P46098, S158T); experiment: FlexStation membrane potential dye functional assay, HEK293 cells; assay type: cell-based; design: expressed in transfected cells; host or cells: HEK293; details: inhibition of 5-HT (EC50 concentration) response, 45 min preincubation, 5-HT3A S163T
T4 sequence (P46098 24-478 S158T): T1 sequence (P46098 24-478) with S135T
Protocol: For FlexStation assays, transfected cells were plated on 96-well plates and incubated 1–2 days before assay.
as §2, §3

[5] = target: T5, 5-HT3AB receptor, 5-HT3B subunit E170A (Homo sapiens, UniProt P46098); experiment: biochemical; assay type: binding; details: [3H]-palonosetron saturation, 5-HT3AB with 5-HT3B E170A, 4 °C, 24 h
T5 construct: variant as stated: E170A
T5 sequence (P46098 24-478): T1 sequence (P46098 24-478)
T5 sequence (O95264 22-441 partner): T1 sequence (O95264 22-441 W83C) with C62W
Protocol: as §4, §5, §6

[6] = target: T2, 5-HT3AB receptor, 5-HT3B subunit H73A; experiment: cell-based
Protocol: as §1, §2, §3

Row | SMILES | Hill Coefficient [1] | Hill Coefficient [2] | Kd [3] | IC50 [4] | Kd [5] | IC50 [6]
1 | NCCc1c[nH]c2ccc(O)cc12 [5-HT, serotonin] | 2.0 ± 0.4 | 1.6 ± 0.2 |  |  |  | 
2 | O=C1c2cccc3c2[C@H](CCC3)CN1[C@@H]1CN2CCC1CC2 [Palonosetron] |  |  | 0.18 ± 0.02 nM | 1.02 ± 0.19 nM | 0.21 ± 0.03 nM | 0.97 ± 0.26 nM
